Data: patent publication US12678453B2, “Aerosolized formulations of HIV protease inhibitors for the treatment of airway reflux” (The Medical College of Wisconsin, Inc., priority 2020, dated 2026)

How the values were obtained:
porcine pepsin A = biological target: T1, porcine pepsin A (Sus scrofa, UniProt P00791); assay: co-crystallization of inhibitors with pepsin; format: binding; conditions: crystal structures of porcine pepsin complexes
T1 construct: purchased Worthington Biochemical Corporation
Description: (§1) Lyophilized porcine pepsin A (Worthington Biochemical Corporation) was dissolved in water at 200 mg/mL. All ligand stock solutions, except for saquinavir mesylate, were prepared as saturated solutions in DMSO in order to dissolve the maximal amount of ligand. The solutions were centrifuged and an appropriate volume of the supernatant was added to the pepsin solution so that final mixture contained 1.6% of the ligand stock by volume. The mixtures were incubated at room temperature for 1 h, centrifuged for 10 min at 31,000 rcf, and the supernatant was used for crystallization experiments. […] In order to maximize the solubility of saquinavir in the crystallization solution, we tested solutions from the CryoSol screen (Molecular Dimensions) (PMID 28626721). Mixture SM2 consisting of 37.5% v/v dioxane, 25% v/v DMSO, 12.5% v/v ethylene glycol, 12.5% v/v 1,2-propanediol, and 12.5% v/v glycerol allowed us to increase the amount of ligand solution in the co-crystallization mixture without damaging the protein. The saturated solution of saquinavir in SM2 was treated in the same manner as solutions of other ligands except that its amount in the solution with pepsin was increased to 5% by volume.
The initial crystallization condition was identified by screening 200 mg/mL ligand-free porcine pepsin against the Salt RX screen (Hampton Research). Small bipyramid-shaped crystals were obtained in 3.5 M ammonium chloride and 0.1 M sodium acetate trihydrate pH 4.6 after 1 week of incubation at room temperature. […] Diffraction quality crystals formed after 2-7 days from hanging drops containing 2 μL of pepsin at concentrations of 180-210 mg/mL and 1 μL of a microseed solution serially diluted 10-100× above a well solution containing 3 M-4 M ammonium chloride and 0.1 M sodium acetate trihydrate pH 4.6. The crystals were shaped as triangular bi-pyramids with dimensions approximately 200×100×100 μm. Crystals were cryoprotected by soaking them in 30% w/v glucose, 5 M ammonium chloride and 0.1 M sodium acetate trihydrate pH 4.6 and then plunging them in liquid nitrogen.
The complex with saquinavir was crystallized in the same manner except that we used 0.1 M acetic acid instead of 0.1 M sodium acetate trihydrate pH 4.6 because this change allowed us to grow large crystals without the need for a microseeding solution. Cryoprotection was accomplished using 30% w/v glucose, 3 M ammonium chloride and 0.1 M acetic acid, followed by plunging in liquid nitrogen.
Pepsin·APV: A 1.9 Å diffraction data set was collected at the Life Sciences Collaborative Access Team beamline (LS-CAT) 21-ID-F at the Advanced Photon Source (APS) equipped with a MAR 300 CCD detector using a 50×50 μm beam at a wavelength of 0.97872 Å. […]

solubility = format: physicochemical; conditions: co-crystallization solution
Description: as §1

T1 sequence (P00791 60-385): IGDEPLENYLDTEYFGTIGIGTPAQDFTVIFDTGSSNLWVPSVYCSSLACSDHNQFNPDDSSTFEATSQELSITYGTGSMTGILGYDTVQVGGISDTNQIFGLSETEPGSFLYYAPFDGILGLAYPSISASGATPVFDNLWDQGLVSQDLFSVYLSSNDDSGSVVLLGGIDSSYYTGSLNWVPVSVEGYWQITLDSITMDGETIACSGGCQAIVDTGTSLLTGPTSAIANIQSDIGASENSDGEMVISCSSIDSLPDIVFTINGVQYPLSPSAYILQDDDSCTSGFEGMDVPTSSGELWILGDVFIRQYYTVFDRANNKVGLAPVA

| binding at the active site of pepsin by co-crystallization (porcine pepsin A) | solubility (solubility) | SMILES |
| --- | --- | --- |
| bind in the pepsin active site | – | CC(C)CN(C[C@@H](O)[C@H](Cc1ccccc1)NC(=O)O[C@H]1CCOC1)S(=O)(=O)c1ccc(N)cc1 [amprenavir, [(3S)-oxolan-3-yl] N-[(2S,3R)-4-[(4-aminophenyl)sulfonyl-(2-methylpropyl)amino]-3-hydroxy-1-phenylbutan-2-yl]carbamate] |
| bind at the active site of pepsin | – | CC(C)c1nc(CN(C)C(=O)N[C@H](C(=O)N[C@@H](Cc2ccccc2)C[C@H](O)[C@H](Cc2ccccc2)NC(=O)OCc2cncs2)C(C)C)cs1 [ritonavir, 1,3-thiazol-5-ylmethyl N-[(2S,3 S,5S)-3-hydroxy-5-[[(2S)-3-methyl-2-[[methyl-[(2-propan-2-yl-1,3-thiazol-4-yl)methyl]carbamoyl]amino]butanoyl]amino]-1,6-diphenylhexan-2-yl]carbamate] |
| bind at the active site of pepsin | low solubility | CC(C)(C)NC(=O)[C@@H]1C[C@@H]2CCCC[C@@H]2CN1C[C@@H](O)[C@H](Cc1ccccc1)NC(=O)[C@H](CC(N)=O)NC(=O)c1ccc2ccccc2n1 [saquinavir, (2S)—N-[(2S,3R)-4-[(3 S,4aS,8aS)-3-(tert-butylcarbamoyl)-3,4,4a,5,6,7,8,8a-octahydro-1H-isoquinolin-2-yl]-3-hydroxy-1-phenylbutan-2-yl]-2-(quinoline-2-carbonylamino)butanediamide] |

| SMILES | binding at the active site of pepsin by co-crystallization (porcine pepsin A) | solubility (solubility) |
| --- | --- | --- |
| CC(C)CN(C[C@@H](O)[C@H](Cc1ccccc1)NC(=O)O[C@H]1CO[C@H]2OCC[C@H]21)S(=O)(=O)c1ccc(N)cc1 [darunavir, [(3a S,4R,6aR)-2,3,3a,4,5,6a-hexahydrofuro[2,3-b]furan-4-yl] N-[(2S,3R)-4-[(4-aminophenyl)sulfonyl-(2-methylpropyl)amino]-3-hydroxy-1-phenylbutan-2-yl]carbamate] | bind at the active site of pepsin | – |
